Measurements taken from ChEMBL document CHEMBL1649181 (2009).

Legend:
Assay type in all cases: functional
[1] = system: Mycobacterium tuberculosis; experiment: Antimicrobial activity against Mycobacterium tuberculosis harboring 11Q to Stop mutation in thymidylate synthase A by agar dilution method
[2] = system: Mycobacterium tuberculosis; experiment: Antimicrobial activity against Mycobacterium tuberculosis harboring 202T to A mutation in thymidylate synthase A by agar dilution method
[3] = system: Mycobacterium tuberculosis; experiment: Antimicrobial activity against Mycobacterium tuberculosis harboring 143L to P mutation in thymidylate synthase A by agar dilution method
[4] = system: Mycobacterium tuberculosis; experiment: Antimicrobial activity against Mycobacterium tuberculosis harboring 264Stop to R mutation in thymidylate synthase A by agar dilution method
[5] = system: Mycobacterium tuberculosis; experiment: Antimicrobial activity against Mycobacterium tuberculosis harboring 153Y to Stop mutation in thymidylate synthase A by agar dilution method
[6] = system: Mycobacterium tuberculosis; experiment: Antimicrobial activity against Mycobacterium tuberculosis harboring 146C to R mutation in thymidylate synthase A by agar dilution method
[7] = system: Mycobacterium tuberculosis; experiment: Antimicrobial activity against Mycobacterium tuberculosis harboring 191Q to R mutation in thymidylate synthase A by agar dilution method
[8] = system: Mycobacterium tuberculosis; experiment: Antimicrobial activity against Mycobacterium tuberculosis harboring 164Y to Stop mutation in thymidylate synthase A by agar dilution method
[9] = system: Mycobacterium tuberculosis; experiment: Antimicrobial activity against Mycobacterium tuberculosis harboring 15G to R mutation in thymidylate synthase A by agar dilution method
[10] = system: Mycobacterium tuberculosis; experiment: Antimicrobial activity against Mycobacterium tuberculosis harboring 182A to P mutation in thymidylate synthase A by agar dilution method
[11] = system: Mycobacterium tuberculosis; experiment: Antimicrobial activity against Mycobacterium tuberculosis harboring 259A to P mutation in thymidylate synthase A by agar dilution method
[12] = system: Mycobacterium tuberculosis; experiment: Antimicrobial activity against Mycobacterium tuberculosis harboring 183L to V mutation in thymidylate synthase A by agar dilution method
[13] = system: Mycobacterium tuberculosis; experiment: Antimicrobial activity against Mycobacterium tuberculosis harboring 127R to L mutation in thymidylate synthase A by agar dilution method
[14] = system: Mycobacterium tuberculosis; experiment: Antimicrobial activity against Mycobacterium tuberculosis harboring 261V to G mutation in thymidylate synthase A by agar dilution method
[15] = system: Mycobacterium tuberculosis; experiment: Antimicrobial activity against Mycobacterium tuberculosis harboring 118L to Stop mutation in thymidylate synthase A by agar dilution method
[16] = system: Mycobacterium tuberculosis; experiment: Antimicrobial activity against Mycobacterium tuberculosis harboring 172L to P mutation in thymidylate synthase A by agar dilution method
[17] = system: Mycobacterium tuberculosis; experiment: Antimicrobial activity against Mycobacterium tuberculosis harboring 251Y to Stop mutation in thymidylate synthase A by agar dilution method
[18] = system: Mycobacterium tuberculosis; experiment: Antimicrobial activity against Mycobacterium tuberculosis harboring 83W to Stop mutation in thymidylate synthase A by agar dilution method

Measured: MIC

Nc1ccc(C(=O)O)c(O)c1 [AMINOSALICYLIC ACID]
>8 µg/mL: [9]
64 µg/mL: [11]
<128 µg/mL: [2]
<64 µg/mL: [7] | [12]
>128 µg/mL: all other assays above
